Key:
human lymphocytes = assay: In vitro micronucleus test; assay type: cell-based

Protocol for Caco-2 cell monolayers: Various controls were assessed in parallel, including atenolol (low permeability) and diclofenac (high permeability).
(§1) The instrument operated in positive ionisation mode (ESI + ) over a m/z range of 80–1000 (n = 1 measure per sample). Data were extracted from chromatograms using calculated monoisotopic accurate masses for protonated molecular ions within 5 ppm windows.
Protocol for human hepatocytes: Pooled human hepatocytes from 10-donor males (BioIVT, West Sussex, UK; MX008001) or 10-donor females (BioIVT, West Sussex, UK; FX008001) were incubated with test compounds (or vehicle) and the compound concentration was measured over time. Samples were incubated at 37 °C and concentrations were assessed after 0, 20-, 40-, 60- and 240-min. Verapamil was included as a control.
as §1

Cc1c(CN(C)C(=O)/C=C/c2cnc3c(c2)N[C@H](C)[C@H](OP(=O)([O-])[O-])C(=O)N3)oc2ccccc12.[Na+].[Na+] [Debio 1453 P]
in vitro micronucleus test result (human lymphocytes): negative
Apparent permeability (Papp) (Caco-2 cell monolayers): negligible
permeability through transwells A → B (Caco-2 cell monolayers): 31.8 ×10⁻⁶ cm/s
Intrinsic clearance (Clint) (human hepatocytes): < 0.44 µL/min/million cells

Reference: article PMC12446476 (Nature Communications, 2025)
